Tested on: parental HEK cells
Assay: Ca2+ assays (fluo-4 and fura-2) in parental HEK cells lacking TRPV3
Type: cell-based, human
Settings: concentrations up to 50 μM
Method: All fluorometric Ca^2+ assays were performed in HBS buffer at room temperature. The compounds of the Enamine Diversity Set were diluted in a buffer composed of 150 mM NaCl and 20 mM HEPES and added to the cells at a final concentration of 25 μM (0.5% DMSO). For the primary compound screening and the generation of concentration-response analyses, a robotic liquid handling station (Freedom Evo 150; Tecan) with a built-in custom-made fluorescence plate imager was used. HEKTRPV3 and bladder cancer cell lines were harvested and loaded with 4 μM fluo-4/AM (Invitrogen; Fisher Scientific) in cell culture medium for 30 minutes at 37 °C. […] Fluorescence was excited using a 470-nm light-emitting diode, and emitted light was imaged through a 515-nm–long pass filter with a cooled Zyla 5.5 camera (Andor). Fluorescence was recorded and processed under the control of the μ-Manager 2.0 gamma software (https://micro-manager.org.[28]). After recording baseline fluorescence, compounds were dispensed into the wells via the liquid handling device. […] For further analysis, fluorescence signals were calculated for each well, corrected for background intensities and normalized to the initial signals. […] Fluorescence signals were excited with a fiber-coupled monochromator device (Polychrome V; Till Photonics) at 340, 358, and 380 nm and calibrated as described before.[29] […]

## COC(=O)C12CN(Cc3ccccc3)CC1(C(=O)OC)CN(Cc1ccccc1)C2 (stereo not shown) [AV3-1]
  off-target effects on parental HEK cells: no detectable off-target effects
